Measured values reported in US20130029367A1, “COMPOSITIONS AND METHODS FOR MONITORING BREAST CANCER TREATMENT” (Board of Trustees of the University of Arkansas, priority 2003, published 2013).

Legend:
9.29 kDa protein = experiment: SELDI-MS of serum proteins in breast cancer patients on radiation therapy and oral glutamine (AES-14); assay type: in vivo, human
Description: Sixteen breast cancer patients treated with radiation therapy were randomized to receive oral supplemental glutamine (AES-14) or a placebo. Ten of the sixteen women received AES-14 (30 g glutamine per day, approximately 0.5 g glutamine/kg/day) from one week prior to initiating radiation therapy (5,000 cGy) until one week after completing radiation therapy. Six patients received placebo. Serum was collected from each patient before beginning glutamine supplementation (Baseline), at two and four weeks after initiating glutamine supplementation, and one week after stopping glutamine supplementation (Post Treatment in FIG. 1).
Serum proteins from each sample were analyzed by SELDI-MS. Briefly, serum proteins were adhered to the solid substrate of a SELDI chip. The proteins were then desorbed by surface enhanced laser desorption in a SELDI-MS apparatus, and analyzed by mass spectrometry.
SELDI-MS was performed using a Ciphergen (Freemont, Calif.) SELDI PDSII instrument. […] The mass:charge ratio (m/z) of each protein was determined according to a variety of externally calibrated peptide and protein standards. […]
The SELDI-MS procedure analyzed proteins over the m/z ratio ranges of 2-20 and 20-100 kDa.

[1] = tested on: radiation injury to normal breast tissue in BCT patients; experiment: Phase III pilot study: oral AES-14 vs placebo for radiation injury to the breast in BCT patients; assay type: in vivo, human; details: at 2 year follow-up
Procedure: This theory was tested in two parts. […] A Phase III pilot study in which 17 patients were randomized to oral AES-14 (30 gm GLN/day, approximately 0.5 gm GLN/kg/day) or placebo from one week prior until one week after radiation therapy (5,000 cGy) was performed. Patients were followed weekly for 7 weeks and every 3 months for 2 years for acute and chronic radiation injury using the RTOG scales, skin biopsy at 0 and 7 weeks, GLN and GSH levels, US, mammogram density, lymphedema, quality of life and performance status.
The RTOG acute radiation morbidity scoring criteria for skin ranges from 0 (no change) to 4 (necrosis). A score of 2 (moist desquamation) was considered failure of treatment. Patients receiving oral AES-14 scored an average of 0.9±0.2, SEM compared to 1.4±0.2 in the placebo group. All patients in the placebo group reached a score of 2 or greater during the first 7 weeks. Two of 8 placebo patients required radiation therapy delay. […] Only 4 of 9 patients in the AES-14 group scored a high of 2, none a 3 (p=0.03 AES-14 vs. placebo, Fisher Exact). At 12 months, 4 of 8 patients in the placebo group complained of pain for which 3 required narcotics, 6 of 8 had significant edema, and 4 of 8 marked increased density and firmness of the radiated breast. […]

[2] = tested on: human gastrointestinal epithelial cell line (CaCo); experiment: Cellular uptake of glutamine in CaCo cells (HPLC detection at 340 nm); assay type: in vitro ADME
Procedure: Distilled, deionized water (107 ml) was added to 207 grams of a dry mixture of sucrose, sorbitol, and glutamine with excipients (Aesgen-14) as listed in Table 1.
Both samples were allowed to stand for 1 day at room temperature. The supernatant was decanted from the residue and used for the cellular uptake determination.
On Day 1, cells from a human gastrointestinal epithelial cell line (CaCo) were plated at a density of 0.5×10^6 cells per well in a 6-well tissue culture dish.
At time points 0, 10, 20, 40, and 60 seconds, the test material was aspirated and the cells washed three times (3×) with chilled (4EC) phosphate buffered saline (PBS), followed by the addition of 1.0 ml of perchloric acid. Cells were harvested by scraping, then aspirated by pipet into a 1.7 ml tube.
The harvested cells were sonicated for 10 seconds, and 500:1 of sonicated cells were transferred into a 1.7 ml tube. The perchloric acid was neutralized by the addition of 130:1 of 2M KHCO3, and the resulting mixture was frozen overnight at −80EC.
Upon thawing, the sample was centrifuged for 10 minutes at 14,000 rpm and the supernatants were transferred to new 1.7 ml tubes and frozen at −80EC. The resulting clarified samples were thawed and diluted 1:3 with deionized water. Fifty microliters were withdrawn, added to 10 microliters complete o-phthaldialdehyde (Sigma P-0532), and mixed by agitation. After incubation for two minutes at room temperature, a 20:1 sample was injected on a Hypersil® C18 Elite 5:m HPLC column using 70:30 acetonitrile:water as the mobile phase. Glutamine levels, measured as :g/ml, were detected at 340 nm.

NC(=O)CC[C@H](N)C(=O)O [L-glutamine]
increase in amount of the 9.29 kDa protein (9.29 kDa protein; first two weeks of glutamine supplementation and radiation therapy): approximately 3 fold
amount of the 9.29 kDa protein after discontinuation (9.29 kDa protein; within one week following discontinuation of glutamine): returned to near the baseline value
patients with local recurrence [1]: none
mean cellular glutamine uptake ([2]; normal cells, incubation time 0 seconds): 3.53 :g/ml
mean cellular glutamine uptake ([2]; normal cells, incubation time 10 seconds): 10.30 :g/ml
mean cellular glutamine uptake ([2]; normal cells, incubation time 20 seconds): 2.48 :g/ml
mean cellular glutamine uptake ([2]; normal cells, incubation time 40 seconds): 3.23 :g/ml
mean cellular glutamine uptake ([2]; normal cells, incubation time 60 seconds): 4.85 :g/ml
mean cellular glutamine uptake ([2]; starved cells (L-glutamine deficient medium), incubation time 0 seconds): 1.33 :g/ml
mean cellular glutamine uptake ([2]; starved cells (L-glutamine deficient medium), incubation time 10 seconds): 1.43 :g/ml
mean cellular glutamine uptake ([2]; starved cells (L-glutamine deficient medium), incubation time 20 seconds): 1.49 :g/ml
mean cellular glutamine uptake ([2]; starved cells (L-glutamine deficient medium), incubation time 40 seconds): 2.23 :g/ml
mean cellular glutamine uptake ([2]; starved cells (L-glutamine deficient medium), incubation time 60 seconds): 49.96 :g/ml
